Square brackets hold non-standard residues; d marks the D form. Peptide text beside a SMILES is read from it. Orn = NCCC[C@H](N)C(=O)O; βAla = NCCC(=O)O
System: MYC promoter and putative enhancer regions
Assay: CUT&RUN qPCR, H3K27Ac modification
Type: cell-based, human
Design: key: enrichment normalized to spiked-in luciferase plasmid DNA control
Conditions: spiked-in luciferase plasmid control
Excerpt: We next examined the molecular mechanism of MYC down-regulation by VGN50. We first utilized Cleavage under targets & release using nuclease (CUT&RUN)-sequencing to examine histone modifications that are known to be associated with enhancers in order to map putative MYC enhancer regions in PEL cells (Fig. 5a). Genome-wide CUT&RUN studies identified putative enhancer and promoter regulatory regions that are marked by H3K27Ac, H3K4me1, POLR2A (RNAPII), BRD4, and SMARCC1, a component of the SWI/SNF complex (Fig. 1b and 5a). The identified putative MYC enhancers were also in good agreement with previous ChIP Hi-C[53] and ChIP-seq data sets[54]. Specific primer pairs were then designed to amplify the respective enhancer regions and to examine regulation of coactivator complex recruitment by VGN50.
Fig. 5 A molecular mechanism of VGN50-mediated MYC-down-regulation. a Cleavage under targets & release using nuclease (CUT&RUN). CUT&RUN was performed with BCBL-1 and BC-1 with the indicated antibodies. Enrichment of active histone modifications, and occupancies of RNAPII and SWI/SNF components at the MYC genomic region are shown as peaks. One of the biological duplicate samples for the BCBL-1 cell line is presented. […] The MYC promoter, enhancer, and negative control regions used for qPCR analyses are indicated with shading. The positions of the MYC coding region, CASC11 coding region, and long non-coding RNA, PVT1, MIR1208 are shown in the panel. b VGN50 inhibits coactivator complex recruitment and c reduces H3K27Ac modification. qPCR is used to examine enrichment of DNA fragments in the presence of VGN50 or mutant peptide (24 μM). Peptide was applied 1 h prior to processing samples for CUT&RUN to replicate SLAM-seq experimental conditions. Non-specific IgG control was also included and enrichment with IgG control at each genomic region was set as 1 for b, and spiked-in luciferase plasmid DNA was used for additional internal control for c. d Formation of a larger protein complex with VGN50. Sucrose gradient sedimentation was used to monitor changes in protein complex formation in the presence of VGN50. The experiment flow chart is shown at the top of this panel. Fractions were collected from top (#1) to bottom (#23/24). Sample #24 without peptide is a smaller fraction of residual samples. Immunoblotting was performed on the odd number samples and the remaining fraction (#24 for no peptide sample) and probed with Flag-tagged SWI/SNF components (SMARCA4, SMARCC2, and SMARCB1). The position of each protein component based on molecular size is indicated. e KSHV K-Rta colocalizes with SWI/SNF components in reactivating BCBL-1 cells. TREx-BCBL-1 cells were triggered for reactivation by treatment with Dox and TPA for 28 h and stained with the indicated antibodies. Images were acquired with Keyence fluorescence microscopy. f A model for VGN50 molecular action. A model depicting the putative molecular action of VGN50 is presented. Coactivator complexes are dynamically assembled on enhancer and promoter regions via transcription factor binding. VGN50, an IDR fragment derived from an exceptionally potent viral transactivator, flexibly interacts with components of coactivators and traps them, thus reduces the available resources for cellular enhancers to activate MYC promoters.
CUT&RUN[72] was performed essentially by following the online protocol developed by Dr. Henikoff’s lab with a few modifications to fit our needs. Cells were washed with PBS and wash buffer [20 mM HEPES-KOH pH 7.5, 150 mM NaCl, 0.5 mM Spermidine (Sigma, S2626), and proteinase inhibitor (Roche)]. After removing the wash buffer, cells were captured on magnetic concanavalin A (ConA) beads (Polysciences, PA, USA) in the presence of CaCl2. […]

## CC(C)C[C@H](NC(=O)CCNC(=O)[C@H](CCCNC(=N)N)NC(=O)[C@H](CCCNC(=N)N)NC(=O)[C@H](CCCNC(=N)N)NC(=O)[C@H](CCCN)NC(=O)[C@H](CCCNC(=N)N)NC(=O)[C@H](CCCNC(=N)N)NC(=O)[C@H](CCCCN)NC(=O)[C@H](CCCCN)NC(=O)[C@H](N)CCCNC(=N)N)C(=O)N[C@@H](CO)C(=O)N[C@@H](CO)C(=O)N[C@@H](C)C(=O)N[C@@H](C)C(=O)N[C@@H](C)C(=O)NCC(=O)N[C@@H](CC(C)C)C(=O)N[C@@H](Cc1ccc(O)cc1)C(=O)N[C@@H](CCC(N)=O)C(=O)N[C@@H](CC(C)C)C(=O)N[C@@H](CC(=O)O)C(=O)N[C@H](C(=O)O)[C@@H](C)O [Mt-P] (H-[dR]KKRR[Orn]RRR[βAla]LSSAAAGLYQLDT-OH; N-terminus and C-terminus assumed)
Region Cont., peptide 24 μM 1 h, replicate 1
  H3K27Ac enrichment, CUT&RUN qPCR: 1.234
Region Cont., peptide 24 μM 1 h, replicate 2
  H3K27Ac enrichment, CUT&RUN qPCR: 1.768
Region Cont., peptide 24 μM 1 h, replicate 3
  H3K27Ac enrichment, CUT&RUN qPCR: 1.486
Region E3, peptide 24 μM 1 h, replicate 1
  H3K27Ac enrichment, CUT&RUN qPCR: 2.706
Region E3, peptide 24 μM 1 h, replicate 2
  H3K27Ac enrichment, CUT&RUN qPCR: 2.727
Region E3, peptide 24 μM 1 h, replicate 3
  H3K27Ac enrichment, CUT&RUN qPCR: 2.006
Region E4, peptide 24 μM 1 h, replicate 1
  H3K27Ac enrichment, CUT&RUN qPCR: 25.383
Region E4, peptide 24 μM 1 h, replicate 2
  H3K27Ac enrichment, CUT&RUN qPCR: 24.888
Region E4, peptide 24 μM 1 h, replicate 3
  H3K27Ac enrichment, CUT&RUN qPCR: 21.090
Region E5, peptide 24 μM 1 h, replicate 1
  H3K27Ac enrichment, CUT&RUN qPCR: 8.581
Region E5, peptide 24 μM 1 h, replicate 2
  H3K27Ac enrichment, CUT&RUN qPCR: 8.863
Region E5, peptide 24 μM 1 h, replicate 3
  H3K27Ac enrichment, CUT&RUN qPCR: 8.913
Region P1, peptide 24 μM 1 h, replicate 1
  H3K27Ac enrichment, CUT&RUN qPCR: 6.685
Region P1, peptide 24 μM 1 h, replicate 2
  H3K27Ac enrichment, CUT&RUN qPCR: 5.570
Region P1, peptide 24 μM 1 h, replicate 3
  H3K27Ac enrichment, CUT&RUN qPCR: 7.094
